Measured values as given in patent US20140249143A1, “Compounds And Methods For Enhancing Innate Immune Responses” (GlaxoSmithKline LLC, priority 2011, published 2014).

Experiments:
Format in all cases: cell-based
[1] = tested on: HCV genotype 1b subgenomic replicon; test: Anti-Hepatitis C replicon assay, genotype 1b (luciferase); details: Hepatitis C virus; luciferase activity measured 48 hours later; read-out: HCV Genotype 1B Replicon pEC50 (converted)
Experimental: (§1) Compounds were assayed for activity against HCV using the genotype 1a and 1b subgenomic replicon model systems. Stable cell lines bearing the genotype 1a and 1b replicons were used for screening of compounds. Both replicons are bicistonic and contain the firefly luciferase gene. The ET cell line is stably transfected with RNA transcripts harboring a I389luc-ubi-neo/NS3-3′/ET replicon with firefly luciferase-ubiquitin-neomycin phosphotransferase fusion protein and EMCV-IRES driven NS3-5B polyprotein containing the cell culture adaptive mutations (E1202G; T1280I; K1846T) (Krieger at al, 2001 and unpublished). The genotype 1a replicon is a stable cell line licensed from Apath LLC, modified to contain the firefly luciferase gene. The cells were grown in DMEM, supplemented with 10% fetal calf serum, 2 mM Glutamine, Penicillin (100 IU/mL)/Streptomycin (100 μg/mL), 1× nonessential amino acids, and 250-500 μg/mL G418 (“Geneticin”). They were all available through Life Technologies (Bethesda, Md.). The cells were plated at 0.5×10^4 cells/well in 384 well plates containing compounds. The final concentration of compounds ranged between 0.03 pM to 50 μm and the final DMSO concentration of 0.5-1%.
(§2) Luciferase activity was measured 48 hours later by adding a Steady glo (Promega, Madison, Wis.). Percent inhibition of replication data was plotted relative to no compound control. Under the same condition, cytotoxicity of the compounds was determined using cell titer glo (Promega, Madison, Wis.). IC50s were determined from a 10 point dose response curve using 3-4-fold serial dilution for each compound, which spans a concentration range>1000 fold. BioAssay determines the level of inhibition for each compound by normalizing cross-talk corrected plate values against the negative (low or background, cells with no compound present) and positive (high DMSO, no cells) controls to determine Percent Inhibition:
(§3) These normalized values are exported to IC50 where they are plotted against the molar compound concentrations using the standard four parameter logistic equation: […]

[2] = tested on: ISG56 (Interferon-Stimulated Gene 56) promoter ISRE; test: ISG56 luciferase reporter assay in HEK 293 cells; details: Homo sapiens, HEK293; HEK 293 reporter, 24 hours; 100% = small molecule control test compound; read-out: ISG56 (Average Max Response) %
Experimental: Compounds of the present invention were tested against a HEK (Human Embryonic Kidney) 293 cell line that was stably transfected with a firefly luciferase reporter gene under the control of the ISG56 (Interferon-Stimulated Gene 56) promoter ISRE (Interferon-Stimulated Response Element). While the ISRE is in the opposite orientation of the wild type promoter, literature^1 cites that the response elements are pallindromic and function properly in either orientation. ^1Reich, N., Evans, B., Levy, D., Fahey, D., Knight, E., Damell, J. E. (1987) Interferon-induced transcription of a gene encoding a 15-kDa protein depends on an upstream enhancer element. See, Proc. Natl. Acad. Sci. 84, (6394-6398).
In preparation for the assay, test compounds were serially diluted 3-fold in DMSO from a typical top concentration of 5 mM and plated at 0.2 μL in a 384-well, polystyrene, tissue culture treated plate with lid (Greiner Bio-One North America, Inc., Monroe, N.C.) to generate 11-point dose response curves in the assay. Low control wells (0% response) contained 0.2 μL of DMSO alone, and high control wells (100% response) contained 0.2 μL of a small molecule control test compound.
Frozen stocks of the transfected HEK 293 cells were washed and recovered in DMEM I Ham's F-12 media (Invitrogen Corporation, Carlsbad, Calif.) supplemented with 10% v/v qualified Australian fetal bovine serum (FBS) (Invitrogen Corporation, Carlsbad, Calif.), 1× GlutaMAX™ (Invitrogen Corporation, Carlsbad, Calif.), 1×MEM non-essential amino acids (NEAA) (Invitrogen Corporation, Carlsbad, Calif.) and 500 μg/ml Geneticin® (Invitrogen Corporation, Carlsbad, Calif.). The cells were diluted to 500,000 cells/mL in the supplemented DMEM/Ham's F-12 media, and 20 μL of the cell suspension were added to each well of the previously prepared 384-well compound plate, resulting in 10,000 cells/well. The plate, with lid, were placed in a 37° C., 5% CO2 humidified incubator for 24 hours.
Following incubation, the plates were removed and placed on the bench top without lids to equilibrate to room temperature for 30 minutes. Steady-Glo® (Promega Corporation, Madison, Wis.) was prepared according to the manufacturer's instructions, and 10 μL were added to each plate well. After a twenty minute incubation at room temperature, luminescence was read on a ViewLux™ (PerkinElmer Inc., Waltham, Mass.).
The data for dose responses were plotted as % activation versus compound concentration following normalization using the formula 100*((U−C1)/(C2−C1)), where U was the unknown value, C1 was the average of the low (0% response) control wells and C2 was the average of the high (100% response) control wells. Curve fitting was performed with the equation y=A+((B−A)/(1+(10^x/10^C)^D)), where A was the minimum response, B was the maximum response, C was the log(EC50) and D was the Hill slope. The results for each test compound were recorded as pEC50 values (—C in the above equation) and as max response values at a given concentration.

[3] = tested on: HCV genotype 1a subgenomic replicon; test: Anti-Hepatitis C replicon assay, genotype 1a (luciferase); details: Hepatitis C virus; luciferase activity measured 48 hours later; read-out: HCV Genotype 1A Replicon pEC50 (converted)
Experimental: as §1, §2, §3

Q: `CC(C)c1cc(C(F)(F)F)c2ccc3nc(-c4nnco4)cn3c2n1` [Compound 3, 2-[2-(propan-2-yl)-4-(trifluoromethyl)imidazo[1,2-a]1,8-naphthyridin-8-yl]-1,3,4-oxadiazole] was tested. Which EC50 [1] did it give?
A: 316 nM

Q: What about the Emax [2] of the same compound?
A: 408%

Q: What about the EC50 [3] of the same compound?
A: 100 nM

Q: With `FC(F)(F)c1cc(C(F)(F)F)c2ccc3nc(-c4cnco4)cn3c2n1` [Compound 4, 5-[2,4-bis(trifluoromethyl)imidazo[1,2-a]1,8-naphthyridin-8-yl]-1,3-oxazole] as the compound, how does the EC50 [1] read?
A: 398 nM

Q: And the Emax [2]?
A: 178%

Q: And the EC50 [3]?
A: 126 nM

Q: With `FC(F)(F)c1cc(C2CC2)nc2c1ccc1nc(-c3nnco3)cn12` [Compound 5, 2[2-cyclopropyl-4-(trifluoromethyl)imidazo[1,2-a]1,8-naphthyridin-8-yl]-1,3,4-oxadiazole] as the compound, how does the EC50 [1] read?
A: 398 nM

Q: And the Emax [2]?
A: 151%

Q: What about the EC50 [3] of the same compound?
A: 100 nM

Q: For `FC(F)(F)c1cc(-c2ccsc2)nc2c1ccc1nc(-c3nnco3)cn12` [Compound 6, 2-[2-(thiophen-3-yl)-4-(trifluoromethyl)imidazo[1,2-a]1,8-naphthyridin-8-yl]-1,3,4-oxadiazole], which EC50 [1] is on record?
A: 501 nM

Q: What about the Emax [2] of the same compound?
A: 7.75%

Q: What about the EC50 [3] of the same compound?
A: 200 nM

Q: What does the source list for `Cc1cc(C(F)(F)F)c2ccc3nc(-c4nnco4)cn3c2n1` [Compound 7, 2-[2-methyl-4-(trifluoromethyl)imidazo[1,2-a]1,8-naphthyridin-8-yl]-1,3,4-oxadiazole]?
A: EC50 [1]: 631 nM; EC50 [3]: 1260 nM

Q: For `FC(F)(F)c1cc(C(F)(F)F)c2ccc3[nH]c(-c4nnco4)cc3c2n1` [Compound 8, 2-[2,4-bis(trifluoromethyl)-7H-pyrrolo[2,3-h]quinolin-8-yl]-1,3,4-oxadiazole], which EC50 [1] is on record?
A: 631 nM

Q: What about the Emax [2] of the same compound?
A: 2.5%

Q: And the EC50 [3]?
A: 631 nM

Q: Which results are given for `Cc1c(-c2nnco2)nc2ccc3c(C(F)(F)F)cc(C(F)(F)F)nc3n12` [Compound 9, 2-[9-methyl-2,4-bis(trifluoromethyl)imidazo[1,2-a]1,8-naphthyridin-8-yl]-1,3,4-oxadiazole]?
A: EC50 [1]: 794 nM; Emax [2]: 262%; EC50 [3]: 158 nM

Q: `CCOc1cc(C(F)(F)F)c2ccc3nc(-c4nnco4)cn3c2n1` [Compound 10, 2-[2-ethoxy-4-(trifluoromethyl)imidazo[1,2-a]1,8-naphthyridin-8-yl]-1,3,4-oxadiazole] was tested. Which EC50 [1] did it give?
A: 794 nM

Q: And the Emax [2]?
A: 10%

Q: And the EC50 [3]?
A: 1000 nM

Q: Which results are given for `FC(F)(F)c1cc(-c2ccoc2)nc2c1ccc1nc(-c3nnco3)cn12` [Compound 12, 2-[2-(furan-3-yl)-4-(trifluoromethyl)imidazo[1,2-a]1,8-naphthyridin-8-yl]-1,3,4-oxadiazole]?
A: EC50 [1]: 794 nM; Emax [2]: 13.5%; EC50 [3]: 398 nM

Q: For `CCc1cc(C(F)(F)F)c2ccc3nc(-c4nnco4)cn3c2n1` [Compound 13, 2-[2-ethyl-4-(trifluoromethyl)imidazo[1,2-a]1,8-naphthyridin-8-yl]-1,3,4-oxadiazole], which EC50 [1] is on record?
A: 1000 nM

Q: And the Emax [2]?
A: 346%

Q: And the EC50 [3]?
A: 398 nM

Q: With `FC(F)(F)c1cc(C(F)(F)F)c2ccc3cc(-c4nnco4)n(Cc4ccccc4)c3c2n1` [Compound 14, 2-[1-benzyl-6,8-bis(trifluoromethyl)-1H-pyrrolo[3,2-h]quinolin-2-yl]-1,3,4-oxadiazole] as the compound, how does the EC50 [1] read?
A: 1000 nM

Q: What about the Emax [2] of the same compound?
A: 10%

Q: What about the EC50 [3] of the same compound?
A: 7940 nM

Q: What does the source list for `FC(F)(F)c1cc(C(F)(F)F)c2ccc3cc(-c4nnco4)[nH]c3c2n1` [Compound 15, 2-[6,8-bis(trifluoromethyl)-1H-pyrrolo[3,2-h]quinolin-2-yl]-1,3,4-oxadiazole]?
A: EC50 [1]: 1000 nM; Emax [2]: 63.5%; EC50 [3]: 398 nM

Q: `Cn1c(-c2nnco2)cc2ccc3c(C(F)(F)F)cc(C(F)(F)F)nc3c21` [Compound 16, 2-[1-methyl-6,8-bis(trifluoromethyl)-1H-pyrrolo[3,2-h]quinolin-2-yl]-1,3,4-oxadiazole] was tested. Which EC50 [1] did it give?
A: 1000 nM

Q: What about the Emax [2] of the same compound?
A: 35.5%

Q: And the EC50 [3]?
A: 251 nM

Q: For `FC(F)(F)c1cc(-c2ccccc2)nc2c1ccc1nc(-c3nnco3)cn12` [Compound 17, 2-[2-phenyl-4-(trifluoromethyl)imidazo[1,2-a]1,8-naphthyridin-8-yl]-1,3,4-oxadiazole], which EC50 [1] is on record?
A: 1260 nM

Q: And the Emax [2]?
A: 31.5%

Q: And the EC50 [3]?
A: 501 nM

Q: For `FC(F)(F)c1cc(C(F)(F)F)c2ccc3nc(-c4nnco4)c(Cl)n3c2n1` [Compound 18, 2-[9-chloro-2,4-bis(trifluoromethyl)imidazo[1,2-a]1,8-naphthyridin-8-yl]-1,3,4-oxadiazole], which EC50 [1] is on record?
A: 1580 nM

Q: And the Emax [2]?
A: 27%

Q: What about the EC50 [3] of the same compound?
A: 251 nM

Q: Which results are given for `FC(F)(F)c1cc(-c2cccnc2)nc2c1ccc1nc(-c3nnco3)cn12` [Compound 19, 3-[8-(1,3,4-oxadiazol-2-yl)-4-(trifluoromethyl)imidazo[1,2-a]1,8-naphthyridin-2-yl]pyridine]?
A: EC50 [1]: 1580 nM; Emax [2]: 9%; EC50 [3]: 12600 nM

Q: What does the source list for `FC(F)Oc1cc(C(F)(F)F)c2ccc3nc(-c4nnco4)cn3c2n1` [Compound 20, 2-[2-(difluoromethoxy)-4-(trifluoromethyl)imidazo[1,2-a]1,8-naphthyridin-8-yl]-1,3,4-oxadiazole]?
A: EC50 [1]: 1580 nM; Emax [2]: 13.5%; EC50 [3]: 1000 nM

Q: How did the EC50 [1] turn out when `O=C(C1CCC1)n1c(-c2nnco2)cc2ccc3c(C(F)(F)F)cc(C(F)(F)F)nc3c21` [Compound 21, 2-[1-cyclobutanecarbonyl-6,8-bis(trifluoromethyl)-1H-pyrrolo[3,2-h]quinolin-2-yl]-1,3,4-oxadiazole] was run?
A: 2000 nM

Q: And the Emax [2]?
A: 70%

Q: What about the EC50 [3] of the same compound?
A: 631 nM

Q: How did the EC50 [1] turn out when `CC(=O)n1c(-c2nnco2)cc2ccc3c(C(F)(F)F)cc(C(F)(F)F)nc3c21` [Compound 22, 1-[2-(1,3,4-oxadiazol-2-yl)-6,8-bis(trifluoromethyl)-1H-pyrrolo[3,2-h]quinolin-1-yl]ethan-1-one] was run?
A: 2000 nM

Q: And the Emax [2]?
A: 60.5%

Q: What about the EC50 [3] of the same compound?
A: 501 nM

Q: For `CC(C)c1cc(Cl)c2ccc3nc(-c4nnco4)cn3c2n1` [Compound 23, 2-[4-chloro-2-(propan-2-yl)imidazo[1,2-a]1,8-naphthyridin-8-yl]-1,3,4-oxadiazole], which EC50 [1] is on record?
A: 3160 nM

Q: What about the Emax [2] of the same compound?
A: 110%

Q: What about the EC50 [3] of the same compound?
A: 1260 nM

Q: Which results are given for `CC(C)c1cc(C(C)C)c2ccc3nc(-c4nnco4)cn3c2n1` [Compound 30, 2-[2,4-bis(propan-2-yl)imidazo[1,2-a]1,8-naphthyridin-8-yl]-1,3,4-oxadiazole]?
A: EC50 [1]: 1000 nM; EC50 [3]: 316 nM

Q: Which EC50 [1] does the source give for `CC(C)c1cc(-c2ccccc2)c2ccc3nc(-c4nnco4)cn3c2n1` [Compound 31, 2-[4-phenyl-2-(propan-2-yl)imidazo[1,2-a]1,8-naphthyridin-8-yl]-1,3,4-oxadiazole] here?
A: 1260 nM

Q: And the EC50 [3]?
A: 398 nM
